Data published in PMC10477861, “Efficient Mining of Anticancer Peptides from Gut Metagenome” (Advanced Science, 2023).

Tests used:
Settings in all cases: 25 µM pACP, 24 h, maintenance medium 1% FBS, ratio of viability to vehicle (PBS), at least three technical repetitions
[1] = test system: MDA-MB-436; assay: MTT primary screening of anticancer activity, MDA-MB-436; assay type: cell-based
Excerpt: (§1) We successfully chemically synthesized 40 pACPs for the purpose of in vitro or in vivo characterization of their potential anticancer efficacy. In the initial step, we conducted an in vitro primary screen of these 40 pACPs using a panel of 16 different cancer cell lines, including four human CRC lines (HT29, Caco2, HCT116, and […]), as well as 12 other cancer models (Table S4, Supporting Information). We deliberately selected a diverse panel of cell lines to assess the effect of pACPs across various genetic backgrounds. Briefly, the cancer cells were cultured in specific media (details provided in the Experimental Section) and then treated with pACPs at a final concentration of 25 µM. Peptides with minimum effective inhibition concentrations >25 µM were considered non‐ACPs. After exposure to pACPs, the survival rate of the cancer cells was measured using the MTT assay. Remarkably, 39 out of the 40 pACPs (97.5%) induced at least 20% inhibition in at least one cell line (Figure 3a and Table S5, Supporting Information). […] Thus, our method successfully identified pACPs with a very high rate of anticancer effects across various cancer cell lines.
(§2) To evaluate the activity of the 40 potentially effective pACPs, a panel of 16 cancer cell lines was treated, including human CRC cell lines (HT29, Caco‐2, HCT116). Details of the cell lines used, respective media, and culture conditions were presented in Table S1 (Supporting Information). Once the cells reached 60% confluence, it was incubated with each candidate peptide at a concentration of 25 µM pACPs for 24 h. Concurrently, the complete medium was replaced with a maintenance medium containing only 1% FBS. Subsequently, the viability of each cell line using the MTT Cell Proliferation and Cytotoxicity Assay Kit according to the manufacturer's instructions was assessed. […] For the CRC cell line CT26, it was calculated the CC50 value using two peptides (pACP1780 and pACP2283) with relevant data presented in Table S6 (Supporting Information). The calculation was performed using an online tool: https://www.aatbio.com/tools/ic50‐calculator.

[2] = test system: SK-BR-3; assay: MTT primary screening of anticancer activity, SK-BR-3; assay type: cell-based
Excerpt: as §1, §2

[3] = test system: MDA-MB-453; assay: MTT primary screening of anticancer activity, MDA-MB-453; assay type: cell-based
Excerpt: as §1, §2

[4] = test system: HCT116; assay: MTT primary screening of anticancer activity, HCT116; assay type: cell-based, Human
Excerpt: as §1, §2

[5] = test system: MDA-MB-231; assay: MTT primary screening of anticancer activity, MDA-MB-231; assay type: cell-based
Excerpt: as §1, §2

[6] = test system: CT26; assay: MTT primary screening of anticancer activity, CT26; assay type: cell-based, Murine
Excerpt: as §1, §2

[7] = test system: HT29; assay: MTT primary screening of anticancer activity, HT29; assay type: cell-based, Human
Excerpt: as §1, §2

[8] = test system: B16; assay: MTT primary screening of anticancer activity, B16; assay type: cell-based, Mouse
Excerpt: as §1, §2

[9] = test system: BT474; assay: MTT primary screening of anticancer activity, BT474; assay type: cell-based
Excerpt: as §1, §2

[10] = test system: EFM192A; assay: MTT primary screening of anticancer activity, EFM192A; assay type: cell-based
Excerpt: as §1, §2

[11] = test system: T47D; assay: MTT primary screening of anticancer activity, T47D; assay type: cell-based
Excerpt: as §1, §2

[12] = test system: MCF7; assay: MTT primary screening of anticancer activity, MCF7; assay type: cell-based
Excerpt: as §1, §2

[13] = test system: Caco2; assay: MTT primary screening of anticancer activity, Caco2; assay type: cell-based, Human
Excerpt: as §1, §2

[14] = test system: LCC; assay: MTT primary screening of anticancer activity, LCC; assay type: cell-based
Excerpt: as §1, §2

[15] = test system: MDA-MB-468; assay: MTT primary screening of anticancer activity, MDA-MB-468; assay type: cell-based
Excerpt: as §1, §2

[16] = test system: Hela; assay: MTT primary screening of anticancer activity, Hela; assay type: cell-based, Human
Excerpt: as §1, §2

Sequence | Survival rate of cancer cells in primary screening [1] | Survival rate of cancer cells in primary screening [2] | Survival rate of cancer cells in primary screening [3] | Survival rate of cancer cells in primary screening [4] | Survival rate of cancer cells in primary screening [5] | Survival rate of cancer cells in primary screening [6] | Survival rate of cancer cells in primary screening [7] | Survival rate of cancer cells in primary screening [8] | Survival rate of cancer cells in primary screening [9] | Survival rate of cancer cells in primary screening [10] | Survival rate of cancer cells in primary screening [11] | Survival rate of cancer cells in primary screening [12] | Survival rate of cancer cells in primary screening [13] | Survival rate of cancer cells in primary screening [14] | Survival rate of cancer cells in primary screening [15] | Survival rate of cancer cells in primary screening [16]
DSYGNRTEIERKIWRRYPCGYSCGTGEVKCDKEEWKKEYW [pACP264] | 1.00 | 1.00 | 1.00 | 1.00 | 1.00 | 1.00 | 1.00 | 0.73 | 1.00 | 1.00 | 0.70 | 0.72 | 1.00 | 1.00 | 1.00 | 1.00
YSYGYVISSCKKAGGGYAIRYVALHYVQGTKEGGGRQ [pACP2344] | 1.00 | 1.00 | 1.00 | 1.00 | 1.00 | 1.00 | 1.00 | 0.76 | 0.68 | 1.00 | 1.00 | 1.00 | 1.00 | 1.00 | 1.00 | 1.00
CRLCTHGNVSACVLGKNAVFSVSAHNSDCPQPTCDFSSPLEECLESS [pACP177] | 1.00 | 1.00 | 1.00 | 1.00 | 1.00 | 1.00 | 1.00 | 0.73 | 1.00 | 1.00 | 0.59 | 1.00 | 1.00 | 1.00 | 1.00 | 1.00
SVGKRCKMGKNYKTVPALKGIPLAGGTYNTRNRSGSG [pACP2037] | 1.00 | 1.00 | 1.00 | 1.00 | 1.00 | 1.00 | 1.00 | 0.78 | 1.00 | 1.00 | 0.74 | 1.00 | 1.00 | 1.00 | 1.00 | 1.00
RPITNVGGFLEVNGKGVKPLHGNKFKCTVSGSFLASGWFTLELERVL [pACP1757] | 1.00 | 1.00 | 1.00 | 1.00 | 1.00 | 1.00 | 1.00 | 0.79 | 1.00 | 1.00 | 0.76 | 1.00 | 1.00 | 1.00 | 1.00 | 1.00
LLSDFRQYRTKIVRQMRRQIFRQMKQKAE [pACP1210] | 1.00 | 1.00 | 1.00 | 1.00 | 1.00 | 1.00 | 1.00 | 0.76 | 1.00 | 1.00 | 0.65 | 0.79 | 1.00 | 1.00 | 1.00 | 1.00
SCRNGKGISSGDRPGKAKTGISLEIGKCSYRNKGKSAENSSVAVV [pACP1869] | 1.00 | 1.00 | 1.00 | 1.00 | 1.00 | 1.00 | 1.00 | 0.79 | 1.00 | 1.00 | 0.68 | 1.00 | 1.00 | 1.00 | 1.00 | 1.00
HPGCRKAPGCLCTGVIPSAAIPGTGFEIGGAGCFPLALNCNCATLGKV [pACP631] | 1.00 | 1.00 | 1.00 | 1.00 | 1.00 | 1.00 | 1.00 | 0.76 | 1.00 | 1.00 | 0.79 | 1.00 | 1.00 | 1.00 | 1.00 | 1.00
